Reference: US11970479B2, “3-(1H-pyrazol-4-yl)pyridine allosteric modulators of the M4 muscarinic acetylcholine receptor” (Merck Sharp & Dohme LLC, priority 2018, dated 2024)

Target: T1, human M4 muscarinic acetylcholine receptor (Homo sapiens, UniProt P08173)
T1 construct: expressed in transfected cells
T1 sequence (P08173 1-479): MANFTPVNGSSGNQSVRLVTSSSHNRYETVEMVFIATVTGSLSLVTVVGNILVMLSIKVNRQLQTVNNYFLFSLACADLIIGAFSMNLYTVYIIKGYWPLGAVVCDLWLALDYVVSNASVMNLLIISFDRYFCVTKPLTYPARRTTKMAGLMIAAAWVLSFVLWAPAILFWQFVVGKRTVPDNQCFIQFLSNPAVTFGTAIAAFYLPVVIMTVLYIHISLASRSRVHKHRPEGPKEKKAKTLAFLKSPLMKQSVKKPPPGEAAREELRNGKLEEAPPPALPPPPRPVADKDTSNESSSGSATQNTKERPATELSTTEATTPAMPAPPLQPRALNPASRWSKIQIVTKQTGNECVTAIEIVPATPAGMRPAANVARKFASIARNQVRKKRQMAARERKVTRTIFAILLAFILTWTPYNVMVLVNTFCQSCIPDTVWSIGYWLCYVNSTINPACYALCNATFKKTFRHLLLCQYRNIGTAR
Assay: human FLIPR-based M4 PAM assay (CHO-K1 cells with human M4 receptor and Gαqi5, calcium dye fluorescence, EC20 acetylcholine)
Format: cell-based
Settings: inflection point (IP) of the dose response curve, human M4 receptor/Gαqi5, acetylcholine at 20% of maximum response, read-out: M4PAM Hu IP
Protocol: (§1) In a typical experiment the M4 muscarinic acetylcholine receptor modulating activity of the compounds of the present invention was determined in accordance with the following experimental method. CHO-K1 cells stably transfected with human M4 receptor and chimeric G-protein Gαqi5 (Coward P, et al., Analytical Biochemistry, 270:242-248 (1999)) are thawed from liquid N2 storage, resuspended in growth medium, plated in black, clear bottom 384 well plates, and incubated 16-20 hours at 37° C., 5% CO2. On the day of assay, growth medium is removed, the cells are washed 2 times with wash buffer, and cells are incubated in dye loading buffer at 37° C., 5% CO2 for ˜1 hour. Following dye loading the cell plates are placed in a FLIPR Tetra instrument and while monitoring dye fluorescence (excitation […]), 10 uL of test substance at increasing concentrations is added, and fluorescence values are recorded for 4 min. Next, 10 uL of acetylcholine is added (final concentration calculated so as to achieve 20% of the maximum acetycholine response), and the fluorescence reading is continued for 3.5 min. In some cases, a third addition of acetylcholine (final concentration calculated to achieve 70% of the maximal acetylcholine response) is performed. The resulting dose response curves are fit to a 4 parameter logistic equation and the final result is determined as the inflection point (IP) of the curve
as §1, with “CHO-K1” for “In a typical experiment the M4 muscarinic acetylcholine receptor modulating activity of the compounds of the present invention was determined in accordance with the following experimental method. CHO-K1”, “Gαqi5” for “Gαqi5 (Coward P, et al., Analytical Biochemistry, 270:242-248 (1999))”, “performed.” for “performed. The resulting dose response curves are fit to a 4 parameter logistic equation and the final result is determined as the inflection point (IP) of the curve”

SMILES	EC50 [µM]
COc1cc2ccc(-c3nc(C)ccc3-c3cnn(C4CCC(F)(F)CC4)c3)cc2nn1 [Example 108, 7-{3-[1-(4,4-difluorocyclohexyl)-1H-pyrazol-4-yl]-6-methylpyridin-2-yl}-3-methoxycinnoline]	0.142
COc1cc2ccc(-c3nc(C)ccc3-c3cnn(CCC(C)(C)C#N)c3)cc2nn1 [Example 85, 4-{4-[2-(3-methoxycinnolin-7-yl)-6-methylpyridin-3-yl]-1H-pyrazol-1-yl}-2,2-dimethylbutanenitrile]	0.199
COCCOc1ccc(-c2cnn(CCC(C)C)c2)c(-c2ccc3cccnc3c2)n1 [Example 75, 7-{6-(2-methoxyethoxy)-3-[1-(3-methylbutyl)-1H-pyrazol-4-yl]pyridin-2-yl}quinoline]	0.123
CC(C)(Cn1cc(-c2ccc(C#N)nc2-c2ccc3cccnc3c2)cn1)C(F)(F)F [Example 88, 6-quinolin-7-yl-5-[1-(3,3,3-trifluoro-2,2-dimethylpropyl)-1H-pyrazol-4-yl]pyridine-2-carbonitrile]	0.044
COc1cc2ccc(-c3nc(C#N)ccc3-c3cnn(CC4(CC#N)CC4)c3)cc2nn1 [Example 104, 5-(1-{[1-(cyanomethyl)cyclopropyl]methyl}-1H-pyrazol-4-yl)-6-(3-methoxycinnolin-7-yl)pyridine-2-carbonitrile]	0.154
COc1cc2ccc(-c3nc(C)ccc3-c3cnn(CC4CCOC4)c3)cc2nn1 (centres unmarked) [Example 82, 3-methoxy-7-{6-methyl-3-[1-(tetrahydrofuran-3-ylmethyl)-1H-pyrazol-4-yl]pyridin-2-yl}cinnoline]	0.18
CCCc1ccc(-c2cnn(CCC(C)C)c2)c(-c2ccc3cccnc3c2)n1 [Example 69, 7-{3-[1-(3-methylbutyl)-1H-pyrazol-4-yl]-6-propylpyridin-2-yl}quinoline]	0.185
N#Cc1nc(-c2ccc3cccnc3c2)c(-c2cnn(CC3(C(F)(F)F)CC3)c2)cc1F [Example 47, 3-fluoro-6-quinolin-7-yl-5-(1-{[1-(trifluoromethyl)cyclopropyl]methyl}-1H-pyrazol-4-yl)pyridine-2-carbonitrile]	0.088
Cc1cnc(-c2ccc3cccnc3c2)c(-c2cnn(CCC(C)C)c2)c1 [Example 71, 7-{5-methyl-3-[1-(3-methylbutyl)-1H-pyrazol-4-yl]pyridin-2-yl}quinoline]	0.222
COc1ccnc(-c2ccc3cccnc3c2)c1-c1cnn(CCC(C)C)c1 [Example 51, 7-{4-methoxy-3-[1-(3-methylbutyl)-1H-pyrazol-4-yl]pyridin-2-yl}quinoline]	0.414
CC(C)CCn1cc(-c2c(Cl)ccnc2-c2ccc3cccnc3c2)cn1 [Example 64, 7-{4-chloro-3-[1-(3-methylbutyl)-1H-pyrazol-4-yl]pyridin-2-yl}quinoline]	0.295
CC(C)(C)Cn1ncc(-c2ccc(C#N)nc2-c2ccc3cccnc3c2)c1F [Example 58, 5-[1-(2,2-dimethylpropyl)-5-fluoro-1H-pyrazol-4-yl]-6-quinolin-7-ylpyridine-2-carbonitrile]	0.051
COc1cc2ccc(-c3nc(C)ccc3-c3cnn(Cc4ccccc4)c3)cc2nn1 [Example 5, 7-[3-(1-benzyl-1H-pyrazol-4-yl)-6-methylpyridin-2-yl]-3-methoxycinnoline]	0.093
CC(C)CCn1cc(-c2ccc(F)nc2-c2ccc3cccnc3c2)cn1 [Example 65, 7-{6-fluoro-3-[1-(3-methylbutyl)-1H-pyrazol-4-yl]pyridin-2-yl}quinoline]	0.095
COc1cc2ccc(-c3nc(C#N)ccc3-c3cnn(CC(F)(F)C(F)(F)F)c3)cc2nn1 [Example 112, 6-(3-methoxycinnolin-7-yl)-5-[1-(2,2,3,3,3-pentafluoropropyl)-1H-pyrazol-4-yl]pyridine-2-carbonitrile]	0.138
CC(C)(C)Cn1cc(-c2ccc(C#N)nc2-c2cnc3cccnc3c2)cn1 [Example 40, 5-[1-(2,2-dimethylpropyl)-1H-pyrazol-4-yl]-6-(1,5-naphthyridin-3-yl)pyridine-2-carbonitrile]	0.208
N#CCC1(Cn2cc(-c3ccc(C#N)nc3-c3ccc4cccnc4c3)cn2)CC1 [Example 105, 5-(1-{[1-(cyanomethyl)cyclopropyl]methyl}-1H-pyrazol-4-yl)-6-quinolin-7-ylpyridine-2-carbonitrile]	0.12
COc1cc2ccc(-c3nc(C)ccc3-c3cnn(CC4(C)CC4)c3)cc2nn1 [Example 26, 3-methoxy-7-(6-methyl-3-{1-[(1-methylcyclopropyl)methyl]-1H-pyrazol-4-yl}pyridin-2-yl)cinnoline]	0.07
COc1cc2ccc(-c3nc(C)ccc3-c3cnn(CC4(C(F)(F)F)CCC4)c3)cc2nn1 [Example 24, 3-methoxy-7-[6-methyl-3-(1-{[1-(trifluoromethyl)cyclobutyl]methyl}-1H-pyrazol-4-yl)pyridin-2-yl]cinnoline]	0.151
COc1cc2ccc(-c3nc(C)ccc3-c3cnn(CCC(C)(C)F)c3F)cc2nn1 [Example 36, 7-{3-[5-fluoro-1-(3-fluoro-3-methylbutyl)-1H-pyrazol-4-yl]-6-methylpyridin-2-yl}-3-methoxycinnoline]	0.014
Cc1ccc(-c2cnn(CCC(C)(C)F)c2)c(-c2ccc3cccnc3c2)n1 [Example 2, 7-(3-(1-(3-fluoro-3-methylbutyl)-1H-pyrazol-4-yl)-6-methylpyridin-2-yl)quinoline]	0.07
COc1cc2ccc(-c3ncccc3-c3cnn(CC4(C)CCCCC4)c3)cc2nn1 [Example 1, 3-methoxy-7-(3-{1-[(1-methylcyclohexyl)methyl]-1H-pyrazol-4-yl}pyridin-2-yl)cinnoline]	0.022
COc1cc2ccc(-c3nc(C)c(C)cc3-c3cnn(CCC(C)(C)OC)c3)cc2nn1 [Example 34, 3-methoxy-7-{3-[1-(3-methoxy-3-methylbutyl)-1H-pyrazol-4-yl]-5,6-dimethylpyridin-2-yl}cinnoline]	0.141
COc1cc2ccc(-c3nc(C)c(C)cc3-c3cnn(CC(C)(C)OC)c3)cc2nn1 [Example 35, 3-methoxy-7-{3-[1-(2-methoxy-2-methylpropyl)-1H-pyrazol-4-yl]-5,6-dimethylpyridin-2-yl}cinnoline]	0.187
CC(C)CCn1cc(-c2ccc(-c3ccnn3C)nc2-c2ccc3cccnc3c2)cn1 [Example 68, 7-{3-[1-(3-methylbutyl)-1H-pyrazol-4-yl]-6-(1-methyl-1H-pyrazol-5-yl)pyridin-2-yl}quinoline]	0.118
CC(C)(C)Cn1cc(-c2cc(F)cnc2-c2ccc3cccnc3c2)cn1 [Example 55, 7-{3-[1-(2,2-dimethylpropyl)-1H-pyrazol-4-yl]-5-fluoropyridin-2-yl}quinoline]	0.108
Cc1ccc2ccc(-c3nc(C#N)ccc3-c3cnn(CC(C)(C)C)c3)cc2n1 [Example 39, 5-[1-(2,2-dimethylpropyl)-1H-pyrazol-4-yl]-6-(2-methylquinolin-7-yl)pyridine-2-carbonitrile]	0.092
CC(C)Cn1cc(-c2ccc(C#N)nc2-c2ccc3cccnc3c2)cn1 [Example 110, 5-[1-(2-methylpropyl)-1H-pyrazol-4-yl]-6-quinolin-7-ylpyridine-2-carbonitrile]	0.129
N#Cc1ccc(-c2cnn(CC3(C(F)(F)F)CC3)c2)c(-c2ccc3cccnc3c2)n1 [Example 44, 6-quinolin-7-yl-5-(1-{[1-(trifluoromethyl)cyclopropyl]methyl}-1H-pyrazol-4-yl)pyridine-2-carbonitrile]	0.061
